Values after ≈ are worked out from the molar mass of the structure shown. Blank lines part the entries; values can stand above or below the molecule they belong to.
Columns and labels:
HCT-116 [1] = assay: Antiproliferative activity against human HCT-116 cells assessed as reduction in cell growth; assay type: functional, cell-based
AGS = assay: Antiproliferative activity against human AGS cells assessed as reduction in cell viability measured for 48 hrs by Cell-Titer Glo assay; assay type: functional, cell-based
A549 [2] = assay: Antiproliferative activity against human A549 cells assessed as reduction in cell viability incubated for 72 hrs by CCK-8 assay; assay type: functional, cell-based; conditions: A549, 72 h
MCF7 [3] = assay: Antiproliferative activity against human MCF7 cells assessed as reduction in cell viability incubated for 72 hrs by MTT assay; assay type: functional, cell-based; conditions: MCF7, 72 h
A549 [4] = assay: Cytotoxicity against human A549 cells assessed as reduction in cell growth by MTT assay; assay type: functional, cell-based
HCT-116 [5] = assay: Cytotoxicity against human HCT-116 cells assessed as reduction in cell growth by MTT assay; assay type: functional, cell-based
K562 = assay: Cytotoxicity against human K562 cells assessed as cell growth inhibition by MTT assay; assay type: functional, cell-based
NCI-H1975 = assay: Cytotoxicity against human NCI-H1975 cells assessed as cell growth inhibition by MTT assay; assay type: functional, cell-based
HL-60 [6] = assay: Cytotoxicity against human HL-60 cells assessed as cell growth inhibition by MTT assay; assay type: functional, cell-based
Bel-7402 = assay: Cytotoxicity against human Bel-7402 cells assessed as reduction in cell growth incubated for 72 hrs measured by MTT assay; assay type: functional, cell-based; conditions: Bel-7402, 72 h
HEK293 = assay: Cytotoxicity against HEK293 cells assessed as cell growth inhibition; assay type: functional, cell-based; conditions: Homo sapiens
HCT-116 [7] = assay: Cytotoxicity against human HCT-116 cells assessed as reduction in cell viability incubated for 24 hrs by MTT assay; assay type: functional, cell-based; conditions: HCT-116, 24 h
RKO = assay: Cytotoxicity against human RKO cells assessed as inhibition of cell growth measured after 48 hrs by MTT assay; assay type: functional, cell-based
SF-268 [8] = assay: Cytotoxicity against human SF-268 cells assessed as reduction in cell growth incubated for 48 hrs by SRB assay; assay type: functional, cell-based; conditions: SF-268, 48 h
MCF7 [9] = assay: Cytotoxicity against human MCF7 cells assessed as reduction in cell growth incubated for 48 hrs by SRB assay; assay type: functional, cell-based; conditions: MCF7, 48 h
NCI-H460 [10] = assay: Cytotoxicity against human NCI-H460 cells assessed as reduction in cell growth incubated for 48 hrs by SRB assay; assay type: functional, cell-based; conditions: NCI-H460, 48 h
HepG2 [11] = assay: Cytotoxicity against human HepG2 cells assessed as reduction in cell growth incubated for 48 hrs by SRB assay; assay type: functional, cell-based; conditions: HepG2, 48 h
A549 [12] = assay: Cytotoxicity against human A549 cells assessed as reduction in cell viability incubated for 48 hrs by MTT assay; assay type: functional, cell-based; conditions: A549, 48 h
HCT-116 [13] = assay: Cytotoxicity against human HCT-116 cells assessed as reduction in cell viability incubated for 48 hrs by MTT assay; assay type: functional, cell-based; conditions: HCT-116, 48 h
HL-60 [14] = assay: Cytotoxicity against human HL-60 cells assessed as reduction in cell growth; assay type: functional, cell-based
U-937 [15] = assay: Cytotoxicity against human U-937 cells assessed as inhibition of cell growth; assay type: functional, cell-based
T47D = assay: Antiproliferative activity against human T47D cells incubated for 48 hrs by MTT assay; assay type: functional, cell-based
[16] = Cytotoxicity against human AML1 cells expressing FLT3-ITD mutant assessed as cell viability; assay type: functional, cell-based
U-937 [17] = assay: Cytotoxicity against human U-937 cells assessed as reduction in cell growth incubated for 48 hrs by CCK-8 assay; assay type: functional, cell-based; conditions: U-937, 48 h
PC-3 = assay: Cytotoxicity against human PC-3 cells assessed as reduction in cell growth incubated for 48 hrs by CCK-8 assay; assay type: functional, cell-based; conditions: PC-3, 48 h
[18] = Cytotoxicity against human Huh7.5 cells assessed as reduction in cell viability incubated for 72 hrs by CCK-8 assay; assay type: toxicity, cell-based, Huh-7.5
HeLa = assay: Cytotoxicity against human HeLa cells assessed as cell growth inhibition; assay type: functional, cell-based
L1210 = assay: Cytotoxicity against mouse L1210 assessed as cell growth inhibition; assay type: functional, cell-based
SF-268 [19] = assay: Cytotoxicity against human SF-268 cells assessed as reduction in cell growth incubated for 72 hrs by SRB assay; assay type: functional, cell-based; conditions: SF-268, 72 h
MCF7 [20] = assay: Cytotoxicity against human MCF7 cells assessed as reduction in cell growth incubated for 72 hrs by SRB assay; assay type: functional, cell-based; conditions: MCF7, 72 h
HepG2 [21] = assay: Cytotoxicity against human HepG2 cells assessed as reduction in cell growth incubated for 72 hrs by SRB assay; assay type: functional, cell-based; conditions: HepG2, 72 h
NCI-H460 [22] = assay: Cytotoxicity against human NCI-H460 cells assessed as reduction in cell growth incubated for 72 hrs by SRB assay; assay type: functional, cell-based; conditions: NCI-H460, 72 h

IC50 (HCT-116 [1]): 52 µM
IC50 (AGS): 29 µM
IC50 (A549 [2]): 23 µM
IC50 (MCF7 [3]): 31 µM
Compound: CC(=O)O[C@H]1C=COC=C2C[C@@]34SS[C@]5(Cc6ccccc6N5C3=O)C(=O)N4[C@@H]21

IC50 (HCT-116 [1]): 21 µM
IC50 (AGS): 32 µM
IC50 (A549 [2]): 23 µM
IC50 (MCF7 [3]): 36 µM
Compound: CC(=O)O[C@H]1C=COC=C2C[C@@]34SS[C@]5(CC6=COC=C[C@H](OC(C)=O)[C@H]6N5C3=O)C(=O)N4[C@@H]21

Compound: CN1C(=O)[C@]23SSS[C@]1(CO)C(=O)N2[C@H]1Nc2ccccc2C1(C12c4ccccc4N[C@H]1N1C(=O)[C@@]4(CO)SSS[C@]1(C(=O)N4C)[C@H]2O)[C@@H]3O (stereo partly drawn)
IC50 (A549 [4]): 700 nM
IC50 (HCT-116 [5]): 300 nM
IC50 (K562): 1000 nM
IC50 (NCI-H1975): 800 nM
IC50 (HL-60 [6]): 1500 nM

Compound: C[C@H]1CCN2C[C@]34CC5(C(=O)Nc6c5cc(O)c5c6OC=CC(C)(C)O5)C(C)(C)[C@@H]3C[C@]12C(=O)N4C (stereo partly drawn)
IC50 (Bel-7402): 3300 nM

Compound: C=c1c(=O)n2c(cc3ccccc32)c(=O)n1C
IC50 (HEK293): 30.1 µM
IC50 (HCT-116 [7]): 10300 nM
IC50 (RKO): 33600 nM
IC50 (SF-268 [8]): 3300 nM
IC50 (MCF7 [9]): 4670 nM
IC50 (NCI-H460 [10]): 12.3 µM
IC50 (HepG2 [11]): 2290 nM

Compound: CC(C)C[C@H]1NC(=O)[C@@H](Cc2ccc3c(c2)OCO3)NC1=O
IC50 (A549 [12]): 28.4 µg/mL (≈ 93.3 µM)
IC50 (HCT-116 [13]): 45.4 µg/mL (≈ 149 µM)

IC50 (T47D): 11.6 µg/mL (≈ 30.2 µM)
Compound: CC(C)=CCC/C(C)=C/COc1ccc(/C=C2/NC(=O)[C@H](C)N(O)C2=O)cc1
IC50 (HL-60 [14]): 11.6 µg/mL (≈ 30.2 µM)
IC50 (U-937 [15]): 11.6 µg/mL (≈ 30.2 µM)

Compound: CC(C)=CCc1[nH]cnc1/C=C1\NC(=O)CNC1=O
IC50 [16]: 220 nM

Compound: C[C@H]1CCN2C[C@]34CC5(C(=O)Nc6c5ccc5c6OC=CC(C)(C)O5)C(C)(C)[C@@H]3C[C@]12C(=O)N4C (stereo partly drawn)
IC50 (Bel-7402): 1900 nM

IC50 (HCT-116 [1]): 13.8 µM
IC50 (AGS): 12 µM
IC50 (A549 [2]): 12 µM
IC50 (MCF7 [3]): 10 µM
Compound: CC(=O)O[C@H]1C=CC=C2C[C@@]34SS[C@]5(CC6=COC=C[C@H](OC(C)=O)[C@H]6N5C3=O)C(=O)N4[C@@H]21

Compound: CC(C)/C=c1/[nH]c(=O)/c(=C/c2ccccc2)n(C)c1=O
IC50 (A549 [12]): 89.4 µg/mL (≈ 331 µM)
IC50 (HCT-116 [13]): > 100 µg/mL

Compound: COc1ccc2c3c(n(CC=C(C)C)c2c1)[C@H](C=C(C)C)N1C(=O)[C@@H]2CCCN2C(=O)[C@@]1(O)[C@H]3OC
IC50 (U-937 [17]): 25.3 µM
IC50 (PC-3): 98.7 µM

Compound: CO[C@H]1CC(=O)[C@@H]2C[C@@]34SS[C@]5(C[C@H]6C(=O)C[C@H](OC)[C@H](O)[C@H]6N5C3=O)C(=O)N4[C@@H]2[C@H]1O
IC50 at 72 h [18]: 4.88 µM

Compound: CC1(C)C=Cc2c(ccc3c2NC(=O)[C@@]32C[C@@]34NC(=O)[C@]5(CCCN5C3=O)C[C@H]4C2(C)C)O1 [NOTOAMIDE B]
IC50 (HeLa): 52 µg/mL (≈ 116 µM)
IC50 (L1210): 36 µg/mL (≈ 80.4 µM)

Compound: CC1(C)C=Cc2c(ccc3c2N(O)C(=O)[C@@]32C[C@@]34NC(=O)[C@]5(CCCN5C3=O)C[C@H]4C2(C)C)O1
IC50 (HeLa): 27 µg/mL (≈ 58.2 µM)
IC50 (L1210): 29 µg/mL (≈ 62.6 µM)

IC50 (T47D): 11.6 µg/mL (≈ 30.2 µM)
Compound: CC(C)=CCC/C(C)=C/COc1ccc(/C=C2\NC(=O)[C@H](C)N(O)C2=O)cc1
IC50 (HL-60 [14]): 11.6 µg/mL (≈ 30.2 µM)
IC50 (U-937 [15]): 11.6 µg/mL (≈ 30.2 µM)

Compound: CN1C(=O)[C@]2(S)CC3=CC=C[C@H](O)[C@H]3N2C(=O)[C@]1(S)CO
IC50 (HEK293): 1.26 µM
IC50 (HCT-116 [7]): 430 nM
IC50 (RKO): 410 nM

Compound: CC(=O)O[C@H]1C=CC=C2C[C@]34SS[C@](CO)(C(=O)N3[C@@H]21)N(C)C4=O
IC50 (HEK293): 4.49 µM
IC50 (HCT-116 [7]): 890 nM
IC50 (RKO): 1240 nM
IC50 (SF-268 [8]): 250 nM
IC50 (MCF7 [9]): 220 nM
IC50 (NCI-H460 [10]): 0.32 µM
IC50 (HepG2 [11]): 490 nM
IC50 (SF-268 [19]): 250 nM
IC50 (MCF7 [20]): 220 nM
IC50 (HepG2 [21]): 320 nM
IC50 (NCI-H460 [22]): 490 nM
